These results are taken from ChEMBL document CHEMBL1123029, “Synthesis and biological evaluation of phosphonamidate peptide inhibitors of enkephalinase and angiotensin-converting enzyme” (J Med Chem, 1985).

This test concerns the target T1, Neprilysin (Rattus norvegicus, UniProt P07861).
T1 sequence (P07861 whole entry): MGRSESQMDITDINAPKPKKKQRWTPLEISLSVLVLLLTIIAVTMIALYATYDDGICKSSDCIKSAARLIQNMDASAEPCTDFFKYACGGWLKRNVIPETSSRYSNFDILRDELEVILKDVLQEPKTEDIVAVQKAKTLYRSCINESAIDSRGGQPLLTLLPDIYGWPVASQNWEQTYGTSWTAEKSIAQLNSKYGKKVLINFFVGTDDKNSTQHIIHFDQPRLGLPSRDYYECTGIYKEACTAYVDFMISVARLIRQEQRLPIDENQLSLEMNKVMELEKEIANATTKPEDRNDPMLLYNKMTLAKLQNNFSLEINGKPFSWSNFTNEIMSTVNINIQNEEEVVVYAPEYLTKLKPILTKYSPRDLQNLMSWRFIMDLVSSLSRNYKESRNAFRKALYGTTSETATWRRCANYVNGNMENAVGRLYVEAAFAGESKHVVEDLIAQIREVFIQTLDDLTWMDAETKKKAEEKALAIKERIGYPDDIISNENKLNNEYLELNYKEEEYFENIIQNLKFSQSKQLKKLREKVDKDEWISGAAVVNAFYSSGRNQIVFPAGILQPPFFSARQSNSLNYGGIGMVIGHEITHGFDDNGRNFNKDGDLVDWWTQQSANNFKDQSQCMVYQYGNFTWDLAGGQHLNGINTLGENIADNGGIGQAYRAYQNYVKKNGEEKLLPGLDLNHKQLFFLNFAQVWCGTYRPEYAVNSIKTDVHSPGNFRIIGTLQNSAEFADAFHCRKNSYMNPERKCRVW
The test is described as follows: Binding affinity towards enkephalinase (metalloendopeptidase, E.C.3.4.24.11) of rat kidney.
Turning to `CCOP(=O)(CNC(C)=O)NC(Cc1ccccc1)NC(CCSC)C(=O)O` (configuration not stated), the Ki amounted to 160 µM. The same measure for `CC(C)CC(NC(Cc1ccccc1)NP(=O)(O)CNC(=O)c1ccccc1)C(=O)O` (configuration not stated): 10.6 µM.

On to `CC(C)C[C@H](NP(=O)(O)O[C@@H]1O[C@@H](C)[C@H](O)[C@@H](O)[C@H]1O)C(=O)N[C@@H](Cc1c[nH]c2ccccc12)C(=O)O` [PHOSPHORAMIDON], for which the affinity, expressed as Ki, was 0.004 µM. The same measure for `CC(C)CC(NC(Cc1ccccc1)NP(=O)(O)CNC(=O)Cc1ccccc1)C(=O)O` (configuration not stated): 80.2 µM; for `CC(C)CC(NC(Cc1ccccc1)NP(=O)(O)CNC(=O)CCc1ccccc1)C(=O)O` (configuration not stated): 1210 µM; for `CSCCC(NC(Cc1ccccc1)NP(=O)(O)CNC(C)=O)C(=O)O` (configuration not stated): 0.14 µM.

For `CC(=O)NCP(=O)(O)NC(Cc1ccccc1)NC(CC(C)C)C(=O)O` (configuration not stated), the Ki came to 0.85 µM.

By Ki is commonly meant a measure of affinity in units of concentration, obtained from inhibition or displacement.
